Measurements published in the NIST ThermoML archive (doi:10.1021/je7004006).
± gives the expanded uncertainty stated by the source.

Experiment: molar heat capacity at constant pressure
Conditions: 101.33 kPa, Crystal, Small (less than 1 g) adiabatic calorimetry

O=C([O-])c1cccnc1.O=C([O-])c1cccnc1.O=C([O-])c1cccnc1.[Cr+3] [chromium nicotinate]
Conditions	molar heat capacity at constant pressure [J/K/mol]
78.3 K	123.81 ± 0.9
79.58 K	125.36 ± 0.91
80.78 K	127.92 ± 0.93
83.27 K	130.33 ± 0.95
85.75 K	132.64 ± 0.96
87.67 K	134.61 ± 0.98
88.87 K	136.08 ± 0.99
90.15 K	137.63 ± 0.98
92 K	139.67 ± 1
93.27 K	141.41 ± 1
94.62 K	142.98 ± 1
95.9 K	144.85 ± 1
97.32 K	146.89 ± 1
98.81 K	148.83 ± 1.1
100.39 K	151.39 ± 1.1
102.33 K	154.15 ± 1.1
104.42 K	157.04 ± 1.1
106.52 K	159.91 ± 1.1
108.56 K	162.72 ± 1.1
110.57 K	165.32 ± 1.2
112.55 K	168.16 ± 1.2
114.51 K	171.37 ± 1.2
116.44 K	174.23 ± 1.2
118.51 K	177.09 ± 1.2
120.7 K	180.42 ± 1.3
122.86 K	183.21 ± 1.3
125 K	186.13 ± 1.3
127.12 K	189.86 ± 1.3
129.2 K	192.42 ± 1.3
131.27 K	194.83 ± 1.4
133.29 K	197.19 ± 1.4
135.34 K	199.39 ± 1.4
137.35 K	202.21 ± 1.4
139.34 K	205.13 ± 1.4
141.27 K	208.55 ± 1.4
143.29 K	211.67 ± 1.5
145.18 K	214.31 ± 1.5
147.24 K	217.25 ± 1.5
149.26 K	220.52 ± 1.5
151.28 K	222.96 ± 1.5
153.41 K	226.31 ± 1.6
155.54 K	229.13 ± 1.6
157.62 K	231.64 ± 1.6
159.7 K	235.03 ± 1.6
161.75 K	238.11 ± 1.6
163.85 K	240.81 ± 1.7
165.85 K	243.11 ± 1.7
167.87 K	246.05 ± 1.7
169.89 K	248.77 ± 1.7
171.91 K	251.87 ± 1.7
173.84 K	254.46 ± 1.8
175.86 K	257.44 ± 1.8
177.79 K	260.13 ± 1.8
179.73 K	262.72 ± 1.8
181.66 K	265.17 ± 1.8
183.6 K	268.44 ± 1.9
185.62 K	271.07 ± 1.9
187.71 K	274.19 ± 1.9
189.73 K	277.14 ± 1.9
191.82 K	280.35 ± 1.9
193.92 K	283.85 ± 1.9
196.02 K	286.68 ± 2
198.11 K	289.66 ± 2
200.29 K	293.01 ± 2
202.31 K	295.75 ± 2
204.32 K	298.67 ± 2
206.42 K	301.71 ± 2.1
208.43 K	304.98 ± 2.1
210.45 K	308.04 ± 2.1
212.47 K	310.72 ± 2.1
214.4 K	313.38 ± 2.1
216.42 K	316.97 ± 2.2
218.35 K	320.03 ± 2.2
220.29 K	324.12 ± 2.2
222.3 K	325.43 ± 2.2
224.24 K	328.85 ± 2.2
226.09 K	332.72 ± 2.3
228.83 K	337.34 ± 2.3
231.74 K	341.35 ± 2.3
234.72 K	345.07 ± 2.4
237.78 K	349.99 ± 2.4
241.01 K	354.61 ± 2.4
244.07 K	360.78 ± 2.5
247.13 K	364.57 ± 2.5
250.28 K	369.63 ± 2.5
253.26 K	373.95 ± 2.5
256.33 K	378.71 ± 2.6
259.39 K	383.32 ± 2.6
262.45 K	388.08 ± 2.6
265.52 K	392.41 ± 2.7
268.5 K	397.46 ± 2.7
271.49 K	402.07 ± 2.7
274.55 K	406.39 ± 2.8
277.77 K	410.55 ± 2.8
280.84 K	415.32 ± 2.8
283.98 K	420.08 ± 2.9
287.05 K	425.14 ± 2.9
290.11 K	429.31 ± 2.9
293.25 K	432.73 ± 2.9
296.24 K	436.89 ± 3
299.14 K	441.06 ± 3
302.2 K	445.38 ± 3
305.27 K	449.99 ± 3
308.25 K	453.86 ± 3.1
311.39 K	458.92 ± 3.1
314.62 K	464.13 ± 3.1
317.68 K	468.44 ± 3.2
320.91 K	472.31 ± 3.2
324.13 K	476.78 ± 3.2
327.12 K	480.35 ± 3.2
329.78 K	484.81 ± 3.3
332.44 K	488.54 ± 3.3
335.1 K	492.26 ± 3.3
337.84 K	495.98 ± 3.4
340.5 K	499.71 ± 3.4
343.24 K	503.86 ± 3.4
346.06 K	507.44 ± 3.4
348.97 K	511.45 ± 3.5
351.79 K	514.88 ± 3.5
354.53 K	518.75 ± 3.5
357.43 K	523.81 ± 3.5
360.34 K	528.42 ± 3.6
363 K	532.73 ± 3.6
365.9 K	536.45 ± 3.6
368.64 K	539.88 ± 3.6
371.37 K	543.64 ± 3.7
374.08 K	547.89 ± 3.7
376.98 K	552.51 ± 3.7
379.69 K	556.21 ± 3.8
382.38 K	559.42 ± 3.8
385.12 K	562.83 ± 3.8
387.85 K	566.51 ± 3.8
390.52 K	569.91 ± 3.8
